Test results from publication PMC467089, “Click estradiol dimers with novel aromatic bridging units: synthesis and anticancer evaluation” (Journal of Enzyme Inhibition and Medicinal Chemistry, 2024).
Entries after “also recorded” stand apart in the source; their conditions may differ.

What was measured:
[1] = tested on: CCRF-CEM (childhood T-cell acute lymphoblastic leukaemia); test: MTS cytotoxicity assay, CCRF-CEM; type: cell-based; details: Homo sapiens, MTS assay, 72-h incubation, mean ± SD of 3 independent experiments, read-out: IC50 cytotoxic activity CCRF-CEM
In short: (§1)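 Cells seeded overnight, then exposed to fourfold serial dilutions of compounds (DMSO) for 72 h at 37 °C, 5% CO2; viability read by MTS reagent. Technical duplicates, three biological replicates. HCT116p53−/− is the p53-null variant.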

[2] = tested on: K562 (chronic myelogenous leukaemia); test: MTS cytotoxicity assay, K562; type: cell-based; details: Homo sapiens, K562; MTS assay, 72-h incubation, mean ± SD of 3 independent experiments; read-out: IC50 cytotoxic activity K562
In short: as §1

[3] = tested on: A549 (lung adenocarcinoma); test: MTS cytotoxicity assay, A549; type: cell-based, human; details: MTS assay, 72-h incubation, mean ± SD of 3 independent experiments; for IC50: Homo sapiens, A549, read-out: IC50 cytotoxic activity A549
In short: (§2)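 MTS read-out after 72 h compound exposure at 37 °C. Cells plated the day before, treated with fourfold serial dilutions from DMSO stocks; duplicate wells, three independent experiments.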

[4] = tested on: HCT116 (colorectal adenocarcinoma); test: MTS cytotoxicity assay, HCT116; type: cell-based; details: Homo sapiens, HCT-116; MTS assay, 72-h incubation, mean ± SD of 3 independent experiments; read-out: IC50 cytotoxic activity HCT116
In short: as §1

U2OS (osteosarcoma) = test: MTS cytotoxicity assay, U2OS; type: cell-based, human; details: MTS assay, 72-h incubation, mean ± SD of 3 independent experiments; for IC50: Homo sapiens, U2OS, read-out: IC50 cytotoxic activity U2OS
In short: as §2

[5] = MTS cytotoxicity assay, BJ; type: cell-based; details: human, BJ cells (non-tumour skin fibroblasts); MTS assay, 72-h incubation, mean ± SD of 3 independent experiments; read-out: IC50 cytotoxic activity BJ
In short: as §2

[6] = MTS cytotoxicity assay, HUVEC; type: cell-based; details: human, HUVEC cells (umbilical vein endothelial cells); MTS assay, 72-h incubation, mean ± SD of 3 independent experiments; read-out: IC50 cytotoxic activity HUVEC
In short: as §1

porcine brain tubulin = molecular target: T1, porcine brain tubulin (Sus scrofa, UniProt P02550+P02554); test: Tubulin polymerisation assay; type: biochemical; details: for inhibitory activity against tubulin polymerisation (in words): 10 μmol/L, Vmax relative to DMSO; for IC50: dose-response, mean ± SD of two independent experiments, read-out: IC50 inhibition of tubulin assembly; for inhibition at 10 µM: read-out: Tubulin polymerisation inhibition
T1 construct: purchased Cytoskeleton, Denver, CO; host or cells: porcine brain (tissue-purified)
In short: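 Polymerisation of >99% pure porcine brain tubulin followed at 37 °C with a commercial kit, with test compounds at 10 μmol/L or DMSO. Maximum polymerisation velocity (Vmax) derived from the polymerisation curves.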

U2OS cells = test: Immunofluorescence of microtubules / mitotic spindle; type: cell-based, human; details: 10 µM, 24-h incubation
Description: In addition, the presence of aster-like tubulin structures indicated the failure in microtubule elongation (Figure 4, ED5). […] The observed intracellular effects of ED3 and ED5 are consistent with data from in vitro assembly assays and cell cycle analyses, thereby strongly supporting the proposed antimitotic mechanisms of these EDs. […] Importantly, cytotoxic IC50 values may vary depending on the duration of exposure to the drug. A more extended exposure could lead to a decrease in the IC50 value, and vice versa. This temporal factor could also contribute to the observed differential sensitivity among the cell lines. The detailed mechanism and the extent to which these cellular and molecular dynamics (MD) contribute to the observed phenomenon might necessitate further investigation and experimentation.
U2OS cells, cultivated on coverslips, underwent a PBS wash and were then fixed in a solution of 3% paraformaldehyde in a buffer containing 10 mM MES, 150 mM NaCl, 5 mM EGTA, 5 mM MgCl2, 5 mM glucose, adjusted to a pH of 6.1. The nuclei were made visible using Hoechst 33342. Subsequently, a 60-min blocking step with 5% goat serum in PBS (SpinChem, Seattle, WA) was followed by a 60-min incubation with α-tubulin (DM1A) mouse monoclonal antibody (Cell Signaling, Danvers, MA) in PBS supplemented with 1% BSA and 0.3% Triton X-100. Visualisation was achieved using Alexa Fluor-488 conjugated anti-mouse antibodies (Life Technologies, Carlsbad, CA). Between each step, the samples underwent a series of three 5-min washes with PBS. Finally, the samples were mounted using Vectashield Mounting Medium with DAPI and imaged utilising a Zeiss spinning disk confocal microscope equipped with CSU-X1 unit (Yokogawa, Musashino, Japan)[10].

T1 sequence (P02550 whole entry): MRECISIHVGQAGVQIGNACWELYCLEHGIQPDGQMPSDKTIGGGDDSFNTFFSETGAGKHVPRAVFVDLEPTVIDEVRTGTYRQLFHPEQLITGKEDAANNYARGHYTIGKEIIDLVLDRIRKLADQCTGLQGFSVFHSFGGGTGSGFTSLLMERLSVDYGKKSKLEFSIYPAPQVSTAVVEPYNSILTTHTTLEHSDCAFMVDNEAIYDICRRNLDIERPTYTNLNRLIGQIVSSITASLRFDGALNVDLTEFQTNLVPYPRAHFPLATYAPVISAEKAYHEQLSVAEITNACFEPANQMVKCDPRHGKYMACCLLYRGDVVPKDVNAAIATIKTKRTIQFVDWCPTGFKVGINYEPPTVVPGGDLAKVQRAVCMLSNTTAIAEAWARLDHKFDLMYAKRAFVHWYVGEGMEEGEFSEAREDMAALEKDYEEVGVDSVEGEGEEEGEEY
T1 sequence (P02554 whole entry): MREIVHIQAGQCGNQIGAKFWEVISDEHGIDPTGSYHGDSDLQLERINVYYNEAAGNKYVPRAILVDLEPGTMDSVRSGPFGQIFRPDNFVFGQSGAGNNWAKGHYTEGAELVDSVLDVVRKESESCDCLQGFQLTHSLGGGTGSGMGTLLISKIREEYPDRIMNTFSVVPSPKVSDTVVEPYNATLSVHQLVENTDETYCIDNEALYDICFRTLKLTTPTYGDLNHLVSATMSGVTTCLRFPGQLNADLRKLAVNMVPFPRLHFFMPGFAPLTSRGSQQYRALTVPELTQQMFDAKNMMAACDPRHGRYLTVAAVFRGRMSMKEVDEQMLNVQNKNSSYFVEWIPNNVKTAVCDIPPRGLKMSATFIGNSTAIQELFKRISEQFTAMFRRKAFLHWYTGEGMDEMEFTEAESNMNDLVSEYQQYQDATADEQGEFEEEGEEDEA

SMILES	IC50 [1]	IC50 [2]	IC50 [3]	IC50 [4]	IC50 (U2OS (osteosarcoma))	IC50 at 72 h [5]	IC50 at 72 h [6]	inhibitory activity against tubulin polymerisation (in words) (porcine brain tubulin)	IC50 (porcine brain tubulin)	inhibition at 10 µM (porcine brain tubulin)	microtubule organisation in mitotic cells (in words) (U2OS cells)	IC50 cytotoxic activity A549 [3]	IC50 cytotoxic activity U2OS (U2OS (osteosarcoma))
COc1cc(Cn2cc([C@]3(O)CC[C@H]4[C@@H]5CCc6cc(O)ccc6[C@H]5CC[C@@]43C)nn2)cc(Cn2cc([C@]3(O)CC[C@H]4[C@@H]5CCc6cc(O)ccc6[C@H]5CC[C@@]43C)nn2)c1 [ED3, (17β,17′β)-17,17′-[(5-Methoxybenzene-1,3-diyl)bis(methanediyl-1H-1,2,3-triazole-1,4-diyl)]bisestra-1,3,5(10)-triene-3,17-diol]	380 ± 19 nM	330 ± 74 nM	600 ± 47 nM	470 ± 22 nM	610 ± 33 nM	> 50000 nM	< 12.2 nM	comparable or better inhibitory activity	2240 ± 1540 nM	31.6%	disruption in microtubule organisation		
C[C@]12CC[C@@H]3c4ccc(O)cc4CC[C@H]3[C@@H]1CC[C@@]2(O)c1cn(Cc2cccc(Cn3cc([C@]4(O)CC[C@H]5[C@@H]6CCc7cc(O)ccc7[C@H]6CC[C@@]54C)nn3)n2)nn1 [ED, reference compound]	490 ± 220 nM	580 ± 230 nM	> 50000 nM	950 ± 110 nM	6230 ± 700 nM	> 50000 nM	24.4 ± 17 nM		2180 ± 1800 nM	55.6%	disruption in microtubule organisation		
C[C@]12CC[C@@H]3c4ccc(O)cc4CC[C@H]3[C@@H]1CC[C@@]2(O)c1cn(Cc2cc(Cn3cc([C@]4(O)CC[C@H]5[C@@H]6CCc7cc(O)ccc7[C@H]6CC[C@@]54C)nn3)cc(OCCO)c2)nn1 [ED5, (17β,17′β)-17,17′-{[5-(2-Hydroxyethoxy)benzene-1,3-diyl]bis(methanediyl-1H-1,2,3-triazole-1,4-diyl)}bisestra-1,3,5(10)-triene-3,17-diol]	710 ± 40 nM	420 ± 44 nM	> 50000 nM	2020 ± 190 nM	> 50000 nM	> 50000 nM	< 12.2 nM	comparable or better inhibitory activity; also recorded: most potent inhibitor of in vitro tubulin polymerisation	2010 ± 210 nM	70.2%	disruption in microtubule organisation	did not exhibit activity	did not exhibit activity
